# Laboratory results from patent US20250064890A1, “PROTEIN COMPOSITIONS FOR THE TREATMENT OF INFLAMMATORY DISEASES” (Unichem Laboratories Limited, priority 2021, published 2025).
# Where two headings read alike, the source gives them in different places.
# What was measured:
# [1] = system: oral (buccal) mucosa cells (TR146); type: cell-based, human
# Method: The protective effect of the recombinant lectin on survival of TR146 cells against 5-FU induced damage was determined using following calculations:
# The viability of cells was determined as: % Cell viability=(100−% Cytotoxicity); • where, the percentage cytotoxicity corresponding to each treatment was calculated as: % Cytotoxicity=[(R−X)/R]*100, wherein X=Absorbance of cells treated with 5-FU or radiation damage/TI+5-FU, R=Absorbance of Control cells (Untreated) and Percentage protection was calculated as:
# {(Absorbance of TI+5-FU or radiation)−(Absorbance of 5-FU or radiation alone)/(Absorbance of Untreated)−(Absorbance of 5-FU alone)}*100
# [2] = system: oral (buccal) mucosa cells (TR146); test: Sub(G0/G1) cell population (cell cycle) against radiation induced damage; type: cell-based, human; conditions: for % Decrease in Apoptotic cells (with respect to control): Sub G0/G1
# Method: To determine the effect of test item on cell cycle, oral buccal mucosal cells (TR146) were incubated overnight in 5% CO2 incubator at 37° C. for 24 h. […] After 24 h of treatment, cells were exposed to chemotherapy (5-FU 10 mM) for 24 h or radiotherapy (Gamma radiation (3.5 kGy) using Cobalt 60) for 2 h.
# After incubation, cells were harvested by trypsinization and processed for Cell cycle assay. Accordingly, cells were harvested into prelabeled centrifuge tubes and centrifuged at 450 g for 5 min at room temperature (RT, low brake). The supernatants were removed carefully and discarded. 1 ml of 1× phosphate buffer saline (PBS) was added to the pellet and resuspended gently to make homogenous suspension. Cells were centrifuged at 450 g for 5 min, RT (low brake). The supernatant was carefully removed leaving behind approx. 100 μl of PBS. Cells were resuspended gently yet thoroughly in residual PBS. Ice-cold 70% ethanol (100 μl) was added drop-wise into cells in each tube while vortexing at low speed (fixation step). Cells stored at 4° C. for 24 h were centrifuged at 450 g for 5 min, RT (low brake). The supernatant was carefully removed without touching the pellet and discarded. 1 ml of 1×PBS was added into pellet and resuspended gently. Cells were incubated for 1 minute at RT. Cells were centrifuged at 450 g for 5 min, RT (low brake). The supernatant was removed carefully without touching the pellet, leaving behind approx. 20-50 μl of PBS. 200 μl of cell cycle reagent was added into each tube. Cells were resuspended gently and mixed. Cells were incubated for 30 min at RT in the dark. The stained samples were transferred into 96-well plates and acquired on flow cytometer (Guava technologies). Percentage of cells in Sub (G0/G1) phase were determined based on the concept that cell cycle reagent contains PI stain, which stains DNA of cells in different phases of cell cycle; Sub (G0/G1), G1, S, G2 and M. Cells in Sub (G0/G1) phase correspond to apoptotic cells. Percent inhibition in apoptotic cells is determined by the formula:
# =[(% Sub(G0/G1) cells in 5-FU/radiation alone)−(% Sub(G0/G1) cells in TI+5-FU/radiation)/% Sub(G0/G1) cells in 5-FU/radiation alone]*100
# [3] = 0.1 μg/ml + Radiation (3.5 kGy)
structure (smiles),measurement,setting,value
"NCCCNCCSP(=O)(O)O [Amifostine, reference compound]",% Protection,[1]; 1 μg/ml + Radiation (3.5 kGy),7.7%
same,% Protection,[1]; 5 μg/ml + Radiation (3.5 kGy),22.2%
same,% Protection,[1]; 10 μg/ml + Radiation (3.5 kGy),43.1%
same,% Protection,[1]; 25 μg/ml + Radiation (3.5 kGy),12%
same,% Apoptotic cells (Sub G0/G1),[2]; [3],19.4%
same,% Decrease in Apoptotic cells (with respect to control),[2]; [3],45.1%
same,% Apoptotic cells (Sub G0/G1),[2]; 1 μg/ml + Radiation (3.5 kGy),21.8%
same,% Decrease in Apoptotic cells (with respect to control),[2]; 1 μg/ml + Radiation (3.5 kGy),38.2%
same,% Apoptotic cells (Sub G0/G1),[2]; 10 μg/ml + Radiation (3.5 kGy),12.9%
same,% Decrease in Apoptotic cells (with respect to control),[2]; 10 μg/ml + Radiation (3.5 kGy),63.5%
